For experiment [1], the target named is T1, human factor Xa (FXa) (Homo sapiens, UniProt P00742).
T1 construct: factor Xa, which is formed from the proenzyme factor X
As to the kind of experiment: Determination of the factor Xa inhibition (chromogenic substrate). The note with it: human FXa 0.5 nmol/l, Pefachrome FXa 150 μmol/l, 25° C., pH 8.3. Type of experiment: biochemical. As to the method:
The enzymatic inhibition of human factor Xa (FXa) is measured using the conversion of a chromogenic substrate specific for FXa. Factor Xa cleaves p-nitroaniline from the chromogenic substrate. The determinations are carried out in microtitre plates as follows:
The test substances, in various concentrations, are dissolved in DMSO and incubated for 10 minutes at 25° C. with human FXa (0.5 nmol/l dissolved in 50 mmol/l of Tris buffer [C,C,C-tris(hydroxymethyl)aminomethane], 150 mmol/l of NaCl, 0.1% BSA [bovine serum albumin], pH=8.3). Pure DMSO is used as control. The chromogenic substrate (150 μmol/l Pefachrome® FXa from Pentapharm) is then added. After an incubation time of 20 minutes at 25° C., the extinction at 405 nm is determined.

Experiment [2] has as its system trypsin. The experiment is described as follows: Determination of the selectivity: trypsin inhibition (chromogenic substrate). Type of experiment: biochemical, human. The note with it: trypsin 500 mU/ml, Chromozym Trypsin, 37° C., pH 8.0. As to the method:
(§1) To assess selective FXa inhibition, the test substances are examined for their inhibition of other human serine proteases such as trypsin and plasmin. To determine the enzymatic activity of trypsin (500 mU/ml) and plasmin (3.2 nmol/l), these enzymes are dissolved in Tris buffer (100 mmol/l, 20 mmol/l CaCl2, pH=8.0) and incubated with test substance or solvent for 10 minutes. The enzymatic reaction is then started by adding the corresponding specific chromogenic substrates (Chromozym Trypsin® and Chromozym Plasmin®; from Roche Diagnostics) and the extinction at 405 nm is determined after 20 minutes. All determinations are carried out at 37° C.

For experiment [3], the target named is T2, plasmin (Homo sapiens, UniProt P00747).
T2 construct: To determine the enzymatic activity of trypsin (500 mU/ml) and plasmin (3.2 nmol/l)
The experiment is described as follows: Determination of the selectivity: plasmin inhibition (chromogenic substrate). Type of experiment: biochemical. The note with it: plasmin 3.2 nmol/l, Chromozym Plasmin, 37° C., pH 8.0. The protocol: as §1

In patent publication US20100048548A1, “IMINO-OXAZOLIDINES AND USE THEREOF” (Bayer HealthCare AG, priority 2005, published 2010) one finds IC50 data, which are given here for 1 compound.

Molecules are shown by their SMILES. A value given as a limit tells only on which side of the number the result lay.

The IC50 is the point on the concentration scale where inhibition reaches its midpoint.

T2 sequence (P00747 581-810 limits assumed): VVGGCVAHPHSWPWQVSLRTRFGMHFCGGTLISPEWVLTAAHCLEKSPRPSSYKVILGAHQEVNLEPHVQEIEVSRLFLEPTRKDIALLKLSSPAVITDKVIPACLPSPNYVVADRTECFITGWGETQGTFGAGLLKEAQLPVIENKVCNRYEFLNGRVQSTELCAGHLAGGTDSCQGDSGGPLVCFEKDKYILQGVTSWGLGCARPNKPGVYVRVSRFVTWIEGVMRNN
T2 sequence (P00747 97-580 partner limits assumed): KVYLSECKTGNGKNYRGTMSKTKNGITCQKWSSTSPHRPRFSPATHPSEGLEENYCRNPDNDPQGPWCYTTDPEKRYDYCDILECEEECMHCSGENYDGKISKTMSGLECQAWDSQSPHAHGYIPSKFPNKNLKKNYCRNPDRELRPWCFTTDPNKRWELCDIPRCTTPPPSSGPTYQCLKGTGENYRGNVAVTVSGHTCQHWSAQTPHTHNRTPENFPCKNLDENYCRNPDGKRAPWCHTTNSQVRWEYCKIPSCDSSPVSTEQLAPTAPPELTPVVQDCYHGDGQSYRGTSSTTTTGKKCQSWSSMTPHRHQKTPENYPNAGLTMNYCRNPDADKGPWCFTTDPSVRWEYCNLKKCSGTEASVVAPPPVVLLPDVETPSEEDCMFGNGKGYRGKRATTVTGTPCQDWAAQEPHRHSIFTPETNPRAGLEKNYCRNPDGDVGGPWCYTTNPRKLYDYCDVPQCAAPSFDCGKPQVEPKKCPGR
T1 sequence (P00742 235-488 limits assumed): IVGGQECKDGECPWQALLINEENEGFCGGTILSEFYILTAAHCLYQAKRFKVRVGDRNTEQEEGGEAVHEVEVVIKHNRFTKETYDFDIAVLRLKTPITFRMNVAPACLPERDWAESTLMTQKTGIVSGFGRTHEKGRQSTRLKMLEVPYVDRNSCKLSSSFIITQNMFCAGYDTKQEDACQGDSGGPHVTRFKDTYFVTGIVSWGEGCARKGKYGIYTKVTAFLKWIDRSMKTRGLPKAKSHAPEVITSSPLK
T1 sequence (P00742 41-179 partner limits assumed): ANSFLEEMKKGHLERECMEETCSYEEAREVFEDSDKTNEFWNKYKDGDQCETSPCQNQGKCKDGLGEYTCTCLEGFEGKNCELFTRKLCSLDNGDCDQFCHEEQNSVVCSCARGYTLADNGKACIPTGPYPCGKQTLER

Consider `N=C1O[C@@H](CNC(=O)c2ccc(Cl)s2)CN1c1ccc(N2CCOCC2=O)cc1` [Example 1, 5-Chloro-N-({(5S)-2-imino-3-[4-(3-oxomorpholin-4-yl)phenyl]-1,3-oxazolidin-5-yl}methyl)-thiophene-2-carboxamide], for which the IC50 in experiment [1] was 0.0054 µM; in experiment [2], greater than 10 µM; in experiment [3] it was greater than 10 µM.
